Assays:
[1] = test system: TP 410 N cells; test: growth curve, neuroblastoma cells; assay type: cell-based, human; conditions: for Cell count: 25 μM/ml
Description: (§1) The neuroblastoma cell line and the three glioblastoma cell lines were cultivated in Ham's F10 medium enriched with 10% fetal calf serum (FCS) and the usual quantity of penicillin, streptomycin (Pen/Strep) and glutamine. The epidermoidal cell line was cultivated in modified Eagle's Medium (MEM), likewise enriched with 10% (FCS) and the usual quantity of glutamine and Pen/Strep.
(§2) In each case 5×10^4 cells were plated out in T25 bottles, the untreated cells being incubated in analogous conditions as control. The cell count was microscopically determined after 3, 5, 7, 10 and 12 days.

[2] = test system: PDGF receptors and EGF system; test: expression of receptors / EGF system; assay type: cell-based; conditions: Seliger et al., unpublished results
Excerpt: In connection with the neoplastic transformation and increased proliferation rate of glioblastoma cells, two autocrinic loops, the EGF and the PDGF system, are discussed.

[3] = test system: PC-3 cells; test: cell growth, combination with TNF; assay type: cell-based; conditions: 7-OH-1,2-BP 500 μM/ml; TNF 1 nM/ml; combination 500 μM/1 nM; 4 days; 3×10^4 cells/well; control 18.58 + 1.05
Description: (§3) Various cell lines (DU-145, PC-3 and LNCaP) from prostate carcinomas were used.
(§4) Initial cell count: 3×10^4 cells/well; exposure period: DU-145, PC-3: 4 days; LNCaP: 6 days

[4] = test system: LNCap cells; test: cell growth, combination with TNF; assay type: cell-based, human; conditions: 7-OH-1,2-BP 500 μM/ml; TNF 1 nM/ml; combination 500 μM/1 nM; 6 days; 3×10^4 cells/well; control 61.40 + 3.70
Description: as §3, §4

[5] = test system: Onco Mouse mammary glands-neoplasms; test: chemoprevention in transgenic mice (mammary glands-neoplasms); assay type: in vivo; conditions: 200 μM/ml in drinking water
Description: The chemopreventive properties of 7-OH-1,2-BP were tested on transgenic mice of the Onco Mouse™ type (mammary glands-neoplasms): […]

[6] = tolerance study in patients with malignant tumors; assay type: in vivo, human
Excerpt: Over 8 consecutive weeks the patients were examined once a week for signs of systemic toxicity and organic dysfunctions.

[7] = test system: DU-145 cells; test: cell growth, combination with TNF; assay type: cell-based; conditions: 7-OH-1,2-BP 500 μM/ml; TNF 1 nM/ml; combination 500 μM/1 nM; 4 days; 3×10^4 cells/well; control 51.86 + 3.06
Description: as §3, §4

[8] = test system: LNCap cells; test: growth inhibition of prostatic carcinoma cells (Table 1); assay type: cell-based, human; conditions: 250 μmol/ml, after 10 days
[9] = test system: TP 242 MG cells; test: growth curve, glioblastoma cells; assay type: cell-based, human; conditions: for Cell count: 25 μM/ml
Description: as §1, §2

[10] = test system: U 178 MG cells; test: growth curve, glioblastoma cells; assay type: cell-based, human; conditions: for Cell count: 25 μM/ml
Description: as §1, §2

[11] = test system: EJ cells; test: growth inhibition of bladder carcinoma cells (Table 1); assay type: cell-based, human; conditions: 200 μmol/ml, after 10 days
[12] = test system: U 178 MG, TP 410 N, TP 242 MG, TP 336 MG and A 431 cells; conditions: 37.5 μM/ml, 48 hours
Description: as §1
Untreated cells served as a control. Subsequently, the cells were incubated for 8 hours with ^3 H-thymidine. The radioactivity absorbed by the cells was measured in the usual way.

[13] = Homo sapiens, 288 h, 25 μM/ml (Table 2), read-out: % growth inhibition compared with control after 12 days

Structure (SMILES): O=c1ccc2ccc(O)cc2o1 [7-OH-1,2-BP, 7-hydroxy-1,2-benzopyrone]
- Cell count ([1]; after 3 days, control 25): 8 × 10^4
- Cell count ([1]; after 5 days, control 45): 20 × 10^4
- Cell count ([1]; after 7 days, control 71): 36 × 10^4
- inhibition at 25 µM ([1]; Homo sapiens, Neuroblastoma cell, 288 h, 25 μM/ml (Table 2), read-out: % growth inhibition compared with control after 12 days): 62%
- expression of PDGF receptors and of the EGF system [2]: not influenced
- Cell growth [3]: 11.51 + 0.63
- Cell growth [4]: 11.0 + 1.10
- Tumor incidence (number of mice) ([5]; without substance 9/28): 3/38
- Tumor incidence % ([5]; without substance 32): 8%
- side-effects ([6]; 50 mg/day increased up to 2000 mg/day, 8 weeks, 60 patients): no side-effects at all had occurred
- toxic side-effects ([6]; long-term administration, 7000 mg/day): Toxic side-effects were not observed
- Cell growth [7]: 38.30 + 2.92
- % Growth inhibition compared with control [8]: 66%
- Cell count ([9]; after 3 days, control 10): 4 × 10^4
- Cell count ([9]; after 5 days, control 15): 6 × 10^4
- Cell count ([9]; after 7 days, control 23): 8 × 10^4
- Cell count ([9]; after 10 days, control 49): 10 × 10^4
- Cell count ([9]; after 12 days, control 57): 12 × 10^4
- inhibition at 25 µM [9, 13]: 79%
- Cell count ([10]; after 3 days, control 23): 15 × 10^4
- Cell count ([10]; after 5 days, control 57): 13 × 10^4
- Cell count ([10]; after 7 days, control 84): 26 × 10^4
- inhibition at 25 µM [10, 13]: 74%
- % Growth inhibition compared with control [11]: 26%
- cytotoxic / cytostatic effect [12]: not cytotoxic for any of the cells, but cytostatic

From patent US5525626A (priority 1989, dated 1996)
